Literature values in patent publication US20030134332A1, “Diagnosis of endothelial dysfunction by nitric oxide bioactivity index” (priority 2001, published 2003).

Assays:
[1] = system: plasma isoprostane (oxidant stress marker); settings: diabetic men, 600 mg twice daily for seven days
[2] = system: wound healing in diabetic mice

Substance: 2-(2,3-dihydro-5-acetoxy-4,6,7-trimethylbenzofuranyl) acetic acid [raxofelast]
- fall of plasma isoprostane levels in diabetics [1]: 50%
- effect on wound healing [2]: stimulates wound healing
